US20100029604A1, “ANTIBACTERIAL COMBINATION AND ITS USE” (priority 2007, published 2010)
Converted amounts (≈) assume the structure as drawn. Where two headings read alike, the source gives them in different places.

Legend:
E. coli SHV-5 = test: Synergy MIC, inhibitor at 4 μg/mL (Example 4); format: cell-based; conditions: SHV-5, class A, inhibitor constant 4 μg/mL
K. pneumoniae SHV-18 = test: Synergy MIC, inhibitor at 4 μg/mL (Example 4); format: cell-based; conditions: SHV-18, class A, inhibitor constant 4 μg/mL
E. cloacae AmpC = test: Synergy MIC, inhibitor at 4 μg/mL (Example 4); format: cell-based, Enterobacter Cloacae; conditions: class C, inhibitor constant 4 μg/mL
Method: (§1) The in vitro activities of the antibiotics were determined by the broth microdilution method and agar dilution technique as recommended by CLSI guidelines. The MIC experiments were performed in duplicate in 96-well microtiter plates using MHB. Serial twofold dilutions of each antibiotic either alone or in combination with a constant amount (4 μg/mL) of a β-lactamase inhibitor were prepared in MHBII broth. A sterile pipette tip was used to mix the contents of each well (one tip was used going from the low to the high concentration in the same column). The bacterial suspension with final inoculum 10^5 CFU/mL was transferred to the test medium containing the antibacterial substances by a multipoint inoculator (Dynatech, Chantilly, Va., USA). The plates were then incubated at 35° C. for 24 h.
(§2) Following procedures identical to those described in Example 3, representative compound of Formula (I) was tested for its ability to enhance antibiotic efficacy against Class C β-lactamase positive bacterial strains that are highly resistant to β-lactam antibiotics. Class C enzymes included AmpC β-lactamases of Enterobacter Cloacae and Citrobacter freundii.

E. coli SHV-3 [1] = test: Synergy MIC, inhibitor at 4 μg/mL (Example 4); format: cell-based; conditions: SHV-3, class A, inhibitor constant 4 μg/mL
E. coli TEM-1 [2] = format: cell-based; conditions: TEM-1, class A, inhibitor constant 4 μg/mL
C. freundii AmpC = test: Synergy MIC, inhibitor at 4 μg/mL (Example 4); format: cell-based, Citrobacter freundii; conditions: class C, inhibitor constant 4 μg/mL
Method: as §1, §2

E. coli TEM-2 = format: cell-based; conditions: TEM-2, class A, inhibitor constant 4 μg/mL
[3] = tested on: 55 laboratory strains producing characterized β-lactamases; test: MIC, whole panel of Example 5 (Tables 5-7); format: cell-based; conditions: LK-157 as single agent against the tested strains
Method: The MIC experiments were performed in duplicate in 96-well microtiter plates using CAMHB. Serial twofold dilutions of each antibiotic either alone or in combination with constant concentration ratio of a β-lactamase inhibitor (2:1) were prepared in CAMHB. The bacterial suspension with final inoculum 10^5 CFU/mL was transferred to the test medium containing the antibacterial substances. In each well of a 96-well microtiter plate was combined 50 μL of bacterial inoculum, 50 μL of antibiotic dilutions (or media for determination of the MIC of the antibiotic in the absence of test compound). Each plate included 4 wells with no bacterial inoculum (negative control) and 4 wells with no test compound and no antibiotic (positive control). The plates were incubated at 35° C. for 24 h. Purity check and colony counts on each inoculum suspension was performed to ensure that the final inoculum concentration routinely obtained closely approximates 5×10^5 CFU/mL. In addition the assay is routinely monitored by testing standard antibiotics and ensuring that MIC values are within the recommended ranges for the respective strains.
This test permits comparisons to be made between bacterial growth in the presence of antibiotic alone and bacterial growth in the presence of both an antibiotic and a novel (test) compound.

SHV-1 = SHV-1 (Escherichia coli, UniProt P0AD63); test: IC50 determination, nitrocefin hydrolysis; format: biochemical, E. coli; conditions: Class A β-lactamase, 10 min pre-incubation at 37° C.
Method: (§3) A standard test for the production of βlactamase involves use of the chromogenic cephalosporin, nitrocefin.
(§4) Homogeneously purified Class A β-lactamases TEM-1 and SHV-1 from E. coli and Class C enzyme AmpC from Enterobacter Cloaca were employed in the assay.
(§5) Compounds were prepared as 50 mM stocks in DMSO and diluted with buffer P1 (50 mM phosphate, pH 7) to a final concentration of 10% DMSO. All further dilutions were done using P2 (P1 with 10% DMSO). Enzyme and compound dilutions were pre-incubated for 10 min at 37° C. and the reaction started with the addition of pre-warmed (37° C.) nitrocefin (reporter substrate) at a final concentration of […]. The change in absorption at 490 nm was followed at 37° C. for 10 min at 30 sec intervals in a SPECTRAMAX 384 PLUS microplate reader (Molecular Devices, Sunnyvale, Calif.) using 96-well plates. The initial rate was determined and IC50 values were calculated using non-linear regression and sigmoidal dose response analysis with the PRISM 4.0 software (Graphpad Software Inc., San Diego, Calif.). IC50 data is expressed as μM and was calculated from at least two independent experiments.

TEM-1 = TEM-1 (Escherichia coli, UniProt P62593); test: IC50 determination, nitrocefin hydrolysis; format: biochemical, E. coli; conditions: Class A β-lactamase, 10 min pre-incubation at 37° C.
Method: as §3, §4, §5

[4] = tested on: Class C β-lactamase (AmpC) producing strains; test: Synergy MIC, Class C strains of Example 4; format: cell-based; conditions: all combinations used
Method: as §1, §2

M. catarrhalis BRO-1 = test: Synergy MIC, inhibitor at 4 μg/mL (Example 3); format: cell-based, Moraxella catarrhalis; conditions: BRO-1 β-lactamases of M. catarrhalis
Method: (§6) Stock solutions of the test compounds and control antibiotics were prepared in distilled water according to the NCCLS guidelines [Methods for dilution antimicrobial tests for bacteria that grow aerobically. NCCLS document M7-A5; 2000; vol. 19. National Committee for Clinical Laboratory Standards, Villanova, Pa.]. All drug weights were corrected for salt forms and refer to the pure drug substance.
(§7) All tested strains and Clinical isolates were either purchased from the American Type Culture Collection (ATCC), or from the in-house company culture collection.
(§8) Stock cultures were prepared from broth cultures grown at 35° C. for 18-22 h without agitation and subsequent addition of 5% DMSO (v/v, final concentration) as cryoprotectant and stored frozen in liquid nitrogen. Mueller-Hinton II broth (MHBII) (BBL Cockeysville, Md.) was used for the testing procedure.
as §1
(§9) Representative compound of Formula (I) was evaluated against the serine-based Class A β-lactamases including TEM-type, SHV-type extended spectrum β-lactamases (ESBL) and various non-ESBL enzymes of enterobacteriaceae as well as BRO-type enzymes of Moraxella catarrhalis and penicillinases of Staphylococcus aureus.

AmpC = AmpC (Enterobacter cloacae, UniProt P05364); format: biochemical, Enterobacter Cloaca; conditions: Class C β-lactamase; 10 min pre-incubation at 37° C., nitrocefin
Method: as §3, §4, §5

S. aureus PC = test: Synergy MIC, inhibitor at 4 μg/mL (Example 3); format: cell-based, Staphylococcus aureus; conditions: penicillinases (PC-type) of S. aureus (MSSA)
Method: as §6, §7, §8, §1, §9

E. coli SHV-3 [5] = test: Synergy MIC, inhibitor at 4 μg/mL (Example 3); format: cell-based; conditions: β-lactamase SHV-3 (Table 3 r9), inhibitor constant 4 μg/mL
Method: as §6, §7, §8, §1, §9

E. coli ESBL = test: Synergy MIC, inhibitor at 4 μg/mL (Example 3); format: cell-based; conditions: first listed (Table 3 r21), inhibitor constant 4 μg/mL
Method: as §6, §7, §8, §1, §9

E. cloacae SHV-12 = test: Synergy MIC, inhibitor at 4 μg/mL (Example 3); format: cell-based; conditions: β-lactamase SHV-12 (Table 3 r11), inhibitor constant 4 μg/mL
Method: as §6, §7, §8, §1, §9

C. freundii SHV-5 [6] = test: Synergy MIC, inhibitor at 4 μg/mL (Example 3); format: cell-based; conditions: β-lactamase SHV-5 (Table 3 r10), inhibitor constant 4 μg/mL
Method: as §6, §7, §8, §1, §9

K. oxytoca ESBL = test: Synergy MIC, inhibitor at 4 μg/mL (Example 3); format: cell-based; conditions: ESBL (Table 3 r26), inhibitor constant 4 μg/mL
Method: as §6, §7, §8, §1, §9

E. coli TEM-1 [7] = format: cell-based; conditions: β-lactamase TEM-1, first listed (Table 3 r14), inhibitor constant 4 μg/mL
Method: as §6, §7, §8, §1, §9

E. coli TEM-3 = format: cell-based; conditions: β-lactamase TEM-3 (Table 3 r16), inhibitor constant 4 μg/mL
Method: as §6, §7, §8, §1, §9

M. catarrhalis BRO-2 = test: Synergy MIC, inhibitor at 4 μg/mL (Example 3); format: cell-based, Moraxella catarrhalis; conditions: β-lactamase BRO-2 (Table 3 r18), inhibitor constant 4 μg/mL
Method: as §6, §7, §8, §1, §9

C. freundii SHV-5 [8] = test: Synergy MIC, inhibitor at 4 μg/mL (Example 4); format: cell-based; conditions: SHV-5, class A, inhibitor constant 4 μg/mL
[9] = tested on: Klebsiella pneumoniae ATCC 700603; test: MIC broth microdilution (Example 2); conditions: Klebsiella pneumoniae ATCC 700603 producing SHV-18
[10] = tested on: Klebsiella oxytoca ATCC 51983; test: MIC broth microdilution (Example 2); conditions: ATCC51983

Chain of TEM-1 (P62593 24-286 limits assumed): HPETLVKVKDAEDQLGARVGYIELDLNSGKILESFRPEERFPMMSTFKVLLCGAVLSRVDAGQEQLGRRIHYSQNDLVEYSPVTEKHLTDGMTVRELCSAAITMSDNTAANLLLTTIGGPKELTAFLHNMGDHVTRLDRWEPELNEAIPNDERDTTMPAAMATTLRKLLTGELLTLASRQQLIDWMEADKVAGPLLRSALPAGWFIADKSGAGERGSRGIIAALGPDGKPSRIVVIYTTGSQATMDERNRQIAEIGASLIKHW
Chain of AmpC (P05364 21-381): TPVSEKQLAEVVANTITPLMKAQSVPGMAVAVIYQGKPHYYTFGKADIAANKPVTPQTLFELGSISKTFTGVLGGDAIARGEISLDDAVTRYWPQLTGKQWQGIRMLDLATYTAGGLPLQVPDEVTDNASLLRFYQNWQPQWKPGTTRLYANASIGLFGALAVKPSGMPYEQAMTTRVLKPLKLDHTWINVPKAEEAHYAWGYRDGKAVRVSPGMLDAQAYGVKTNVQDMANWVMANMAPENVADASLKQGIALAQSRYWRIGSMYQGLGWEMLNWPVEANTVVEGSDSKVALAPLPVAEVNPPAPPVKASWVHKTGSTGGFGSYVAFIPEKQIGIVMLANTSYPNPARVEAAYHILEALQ
Chain of SHV-1 (P0AD63 22-286): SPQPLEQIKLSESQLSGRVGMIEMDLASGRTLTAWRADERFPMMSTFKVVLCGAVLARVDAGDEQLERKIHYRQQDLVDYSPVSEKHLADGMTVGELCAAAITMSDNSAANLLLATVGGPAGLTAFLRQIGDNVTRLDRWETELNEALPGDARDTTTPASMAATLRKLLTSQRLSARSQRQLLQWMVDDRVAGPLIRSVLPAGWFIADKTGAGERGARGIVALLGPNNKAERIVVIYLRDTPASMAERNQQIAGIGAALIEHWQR

SMILES | MIC (E. coli SHV-5) [µg/mL] | MIC (K. pneumoniae SHV-18) [µg/mL] | MIC (E. cloacae AmpC; first listed) [µg/mL] | MIC (E. cloacae AmpC; second listed) [µg/mL] | MIC (E. cloacae AmpC; third listed) [µg/mL] | MIC (E. coli SHV-3 [1]) [µg/mL] | MIC (E. coli TEM-1 [2]) [µg/mL] | MIC (C. freundii AmpC) [µg/mL] | MIC (E. coli TEM-2) | further results
C/C=C1/C(=O)N2C(C(=O)O)=C3[C@@H](OC)CCC[C@@H]3[C@H]12 [Compound 1a, (4S,8S,9R)-4-methoxy-10-((E)-ethylidene)-11-oxo-1-azatricyclo[7.2.0.0^3,8]undec-2-ene-2-carboxylic acid] | – | – | – | – | – | – | – | – | – | antibiotic activity per se [3]: did not display antibiotic activity per se; IC50 (SHV-1): 151 nM; IC50 (TEM-1): 55 nM; activity compared with tazobactam [4]: superior to tazobactam; activity compared with other β-lactamase inhibitors (M. catarrhalis BRO-1): more active than the other tested β-lactamase inhibitors; IC50 (AmpC): 62 nM; activity compared with other β-lactamase inhibitors (S. aureus PC): more active than the other tested β-lactamase inhibitors
CCN1CCN(C(=O)N[C@@H](C(=O)N[C@@H]2C(=O)N3[C@@H]2SC(C)(C)[C@@H]3C(=O)O)c2ccccc2)C(=O)C1=O [PIP, piperacillin] | – | – | – | – | – | – | – | – | – | MIC (E. coli SHV-3 [5]): > 25.6 µg/mL; MIC (E. coli ESBL): 0.8 µg/mL; MIC (E. cloacae SHV-12): > 25.6 µg/mL; MIC (C. freundii SHV-5 [6]): > 25.6 µg/mL; MIC (K. oxytoca ESBL): 3.2 µg/mL; MIC (E. coli TEM-1 [7]): > 25.6 µg/mL; MIC (E. coli TEM-3): > 25.6 µg/mL; MIC (M. catarrhalis BRO-2): 1.6 µg/mL

Further lines, with some results ahead:

MIC (E. coli SHV-5) [µg/mL] | MIC (K. pneumoniae SHV-18) [µg/mL] | MIC (E. cloacae AmpC; first listed) [µg/mL] | MIC (E. cloacae AmpC; second listed) [µg/mL] | MIC (E. cloacae AmpC; third listed) [µg/mL] | MIC (E. coli SHV-3 [1]) [µg/mL] | MIC (E. coli TEM-1 [2]) [µg/mL] | MIC (C. freundii AmpC) [µg/mL] | MIC (E. coli TEM-2) | SMILES | further results
> 25.6 | > 25.6 | 25.6 | > 25.6 | 12.8 | 0.4 | 12.8 (≈ 29.4 µM) | > 25.6 | 0.1 µg/mL (≈ 0.23 µM) | C[C@H]1[C@H](NC(=O)/C(=N\OC(C)(C)C(=O)O)c2csc(N)n2)C(=O)N1S(=O)(=O)O [Aztreonam, aztreonam] | –
> 25.6 | 0.8 | 6.4 | 3.2 | 3.2 | 0.8 | 25.6 (≈ 49.7 µM) | 1.6 | ≦0.025 | CO/N=C(\C(=O)N[C@@H]1C(=O)N2C(C(=O)[O-])=C(C[n+]3cccc4c3CCC4)CS[C@H]12)c1csc(N)n1 [Cefpirome, cefpirome] | –
> 25.6 | 6.4 | > 25.6 | > 25.6 | > 25.6 | 3.2 | > 25.6 | > 25.6 | ≦0.025 | CO/N=C(\C(=O)N[C@@H]1C(=O)N2C(C(=O)O)=C(CSc3nc(=O)c(=O)[nH]n3C)CS[C@H]12)c1csc(N)n1 [ceftriaxone] | MIC (C. freundii SHV-5 [8]): 25.6 µg/mL; susceptibility of the strain to the antibiotic [9]: susceptible; MIC [10]: 2 to 8 µg/mL (≈ 3.61 to 14.4 µM)
